pIC50: −log10 of the molar value.
What was measured:
[1] = biological target: recombinant kRas mutant (G12C; C51S; C80L; C118S) (Homo sapiens, UniProt P01116, C118S/C51S/C80L/G12C); experiment: Covalent binding assay, intact mass LC-MS; conditions: 25 μM protein, 25 μM compound, room temperature, 2 h
Method: The percentage of covalent adduct formation at KRas G12C was determined by intact mass determination. To this end 25 μM recombinant kRas mutant (G12C; C51S; C80L; C118S) (storage buffer: 50 mM Tris, pH=8; 50 mM NaCl) were incubated with 25 μM of compound (1% v/v final DMSO concentration) at room temperature for 2 h. For LC-MS analysis the reaction was acidified by adding 4 μL of 4% v/v TFA to 20 μL reaction volume.
Liquid chromatography-mass spectrometry (LC-MS) analysis was performed using a Waters SYNAPT G2-S quadrupole time-of-flight mass spectrometer connected to a Waters nanoAcquity UPLC system. Samples were loaded on a 2.1×5 mm mass prep C4 guard column (Waters) and desalted with a short gradient (3 min.) of increasing concentrations of acetonitrile at a flow rate of 100 μL/min. Spectra were analyzed by using MassLynx v4.1 software and deconvoluted with the MaxEnt1 algorithm.
Percent conversion was determined by the ratio of signal intensities of apo-kRas and kRas+inhibitor.

KRAS^G12C = KRAS^G12C (Homo sapiens, UniProt P01116, G12C); experiment: KRAS G12C activation by SOS1cat assay (On-assay), HTRF; conditions: SOS1cat mediated loading of GST-KRAS G12C-GDP with fluorescent GTP analogue; 180 min preincubation; 20° C.; read-out: IC50 value biochemical KRAS^G12C activation assay
Method: (§1) Preparation of test compound dilutions. A 100-fold concentrated solution of the test compound (50 nL) in DMSO was transferred to microtiter test plates (384 or 1,536 wells, Greiner Bio-One, Germany) using either a Hummingbird liquid handler (Digilab, MA, USA) or an Echo acoustic system (Labcyte, CA, USA). Plates were sealed with adhesive foil or heat-sealed and stored at −20° C. until use. Serial dilutions of test compounds were prepared in 100% DMSO using a Precision Pipetting System (BioTek, USA).
(§2) Measurement and evaluation of inhibition data, calculation of IC50 values. Homogeneous time-resolved fluorescence (HTRF) was measured with a PHERAstar reader (BMG, Germany) using the HTRF module (excitation: 337 nm; emission 1: 620 nm, emission 2: 665 nm). The ratio of the emissions at 665 and 620 nm was used as the specific signal for further evaluation. The data were normalized using the controls: DMSO=0% inhibition, inhibition control wells with inhibitor control solution=100% inhibition. Compounds were tested in duplicates at up to 11 concentrations (e.g. 20 μM, 5.7 μM, 1.6 μM, 0.47 μM, 0.13 μM, 38 nM, 11 nM, 3.1 nM, 0.89 nM, 0.25 nM and 0.073 nM). IC50 values were calculated using a four-parameter fit, with a commercial software package (Genedata Screener, Switzerland).
(§3) KRAS^G12C activation by SOS1^cat assay (“On-assay”). This assay quantifies SOS1^cat mediated loading of KRAS^G12C-GDP with a fluorescent GTP analogue. Detection of successful loading was achieved by measuring resonance energy transfer from anti-GST-terbium (FRET donor) bound to GST-KRAS^G12c to the loaded fluorescent GTP analogue (FRET acceptor). The fluorescent GTP analogue EDA-GTP-DY-647P1 [2′/3′-O-(2-aminoethyl-carbamoyl)guanosine-5′-triphosphate labelled with DY-647P1 (Dyomics GmbH, Germany)] was synthesized by Jena Bioscience (Germany) and supplied as a 1 mM aqueous solution. A KRAS^G12C working solution was prepared in assay buffer [10 mM HEPES pH 7.4 (AppliChem), 150 mM NaCl (Sigma), 5 mM MgCl2 (Sigma), 1 mM DTT (Thermo Fisher), 0.05% BSA Fraction V pH 7.0 (ICN Biomedicals), 0.0025% (v/v) Igepal (Sigma)] containing 100 nM GST-KRAS^G12C and 2 nM anti-GST-terbium (Cisbio, France). A SOS1^cat working solution was prepared in assay buffer containing 20 nM SOS1^cat and 200 nM EDA-GTP-DY-647P1. An inhibitor control solution was prepared in assay buffer containing 200 nM EDA-GTP-DY-647P1 without SOS1^cat. All steps of the assay were performed at 20° C. A volume of 2.5 μL of the KRAS^G12C working solution was added to all wells of the test plate using a Multidrop dispenser (Thermo LabSystems). After 180 min, 2.5 μL of the SOS1^cat working solution was added to all wells, except for the inhibitor control solution wells. After 30 min incubation, HTRF was measured.

KRAS^WT = KRAS^WT (Homo sapiens, UniProt P01116); experiment: Wild-type KRAS activation by SOS1cat assay, HTRF; conditions: SOS1cat mediated loading of GST-KRAS WT-GDP with fluorescent GTP analogue; 50 nM GST-KRAS WT; read-out: IC50 value biochemical KRAS^wt activation assay
Method: as §1, §2, §3
Wild-type KRAS activation by SOS1^cat assay. This assay quantifies human SOS1^cat mediated loading of wild-type GST-KRAS^WT-GDP with a fluorescent GTP analogue. The assay was performed similar to the KRAS^G12C activation by SOS1^cat assay. GST-KRAS^G12C was replaced by GST-KRAS^WT, which was used at 50 nM final concentration.

Row | SMILES | Covalent Binding Assay (% binding) [1] | pIC50 (KRAS^G12C) | pIC50 (KRAS^WT)
1 | C=CC(=O)N1CCC(c2nc3cc(Cl)c(-c4c(F)cccc4OC)cc3c(=O)[nH]2)C1 (stereo not drawn) [Example 21, 7-Chloro-6-(2-fluoro-6-methoxyphenyl)-2-[1-(prop-2-enoyl)pyrrolidin-3-yl]quinazolin-4(3H)-one] | 26% | < 4.70 | < 4.70
2 | C=CC(=O)N1CCC(c2nc3cc(Cl)c(-c4ccccc4F)cc3c(=O)[nH]2)C1 (stereo not drawn) [Example 22, 7-Chloro-6-(2-fluorophenyl)-2-[1-(prop-2-enoyl)pyrrolidin-3-yl]quinazolin-4(3H)-one] | 31% | 4.74 | < 4.70
3 | C=CC(=O)N1CCC(c2nc3cc(Cl)c(-c4c(O)cccc4F)cc3c(=O)[nH]2)C1 (stereo not drawn) [Example 24, 7-Chloro-6-(2-fluoro-6-hydroxyphenyl)-2-[1-(prop-2-enoyl)pyrrolidin-3-yl]quinazolin-4(3H)-one] | 53% | 5.04 | < 4.70
4 | C=CC(=O)N1CCC(c2nc3cc(Cl)c(-c4c(C)ccc5[nH]ncc45)cc3c(=O)[nH]2)C1 (stereo not drawn) [Example 25, 7-Chloro-6-(5-methyl-1H-indazol-4-yl)-2-[1-(prop-2-enoyl)pyrrolidin-3-yl]quinazolin-4(3H)-one] | 81% | 5.30 | < 4.70
5 | C=CC(=O)N1CCC(c2nc3cc(Cl)c(-c4cccc5ncccc45)cc3c(=O)[nH]2)C1 (stereo not drawn) [Example 26, 7-chloro-2-[1-(prop-2-enoyl)pyrrolidin-3-yl]-6-(quinolin-5-yl)quinazolin-4(3H)-one] | 41% | < 4.72 | < 4.70
6 | C=CC(=O)N1CCC(c2cc3ncc(-c4c(F)cccc4OC)cc3c(=O)[nH]2)C1 (stereo not drawn) [Example 28, 3-(2-Fluoro-6-methoxyphenyl)-7-[1-(prop-2-enoyl)pyrrolidin-3-yl]-1,6-naphthyridin-5(6H)-one] | 52% | 5.00 | < 4.70
7 | C=CC(=O)N1CCC(c2cc3ncc(-c4ccc(F)cc4F)cc3c(=O)[nH]2)C1 (stereo not drawn) [Example 31, 3-(2,4-Difluorophenyl)-7-[1-(prop-2-enoyl)pyrrolidin-3-yl]-1,6-naphthyridin-5(6H)-one] | 62% | < 4.85 | < 4.70
8 | C=CC(=O)N1CCC(c2cc3ncc(-c4cccc5ncccc45)cc3c(=O)[nH]2)C1 (stereo not drawn) [Example 32, 7-[1-(Prop-2-enoyl)pyrrolidin-3-yl]-3-(quinolin-5-yl)-1,6-naphthyridin-5(6H)-one] | 13% | < 4.70 | < 4.70
9 | C=CC(=O)N1CCC(c2cc3ncc(-c4cccnc4N4CCOCC4)cc3c(=O)[nH]2)C1 (stereo not drawn) [Example 35, 3-[2-(Morpholin-4-yl)pyridin-3-yl]-7-[1-(prop-2-enoyl)pyrrolidin-3-yl]-1,6-naphthyridin-5(6H)-one] | 0% | < 4.70 | < 4.70
10 | C=CC(=O)N1CCC(c2cc3ncc(-c4cc(O)ccc4F)cc3c(=O)[nH]2)C1 (stereo not drawn) [Example 36, 3-(2-Fluoro-5-hydroxyphenyl)-7-[1-(prop-2-enoyl)pyrrolidin-3-yl]-1,6-naphthyridin-5(6H)-one] | 85% | 5.57 | < 4.70
11 | C=CC(=O)N1CCC(c2cc3ncc(-c4ccc(F)c(O)c4)cc3c(=O)[nH]2)C1 (stereo not drawn) [Example 37, 3-(4-Fluoro-3-hydroxyphenyl)-7-[1-(prop-2-enoyl)pyrrolidin-3-yl]-1,6-naphthyridin-5(6H)-one] | 21% | < 4.70 | < 4.70
12 | C=CC(=O)N1CCC(c2nc3ccc(-c4c(O)cccc4F)nc3c(=O)[nH]2)C1 (stereo not drawn) [Example 38, 6-(2-Fluoro-6-hydroxyphenyl)-2[1-(prop-2-enoyl)pyrrolidin-3-yl]pyrido[3,2-d]pyrimidin-4(3H)-one] | 0% | < 4.70 | < 4.70
13 | C=CC(=O)N1CCC(c2cc3cnc(-c4c(F)cccc4OC)cc3c(=O)[nH]2)C1 (stereo not drawn) [Example 41, 7-(2-Fluoro-6-methoxyphenyl)-3-[1-(prop-2-enoyl)pyrrolidin-3-yl]-2,6-naphthyridin-1(2H)-one] | 32% | < 4.70 | < 4.70

The remaining lines, values ahead:

Row | Covalent Binding Assay (% binding) [1] | pIC50 (KRAS^G12C) | pIC50 (KRAS^WT) | SMILES
14 | 3% | < 4.70 | < 4.70 | C=CC(=O)N1CCC(c2nc3ccc(-c4cccnc4N4CCOCC4)cc3c(=O)[nH]2)C1 (stereo not drawn) [Example 20, 6-[2-(Morpholin-4-yl)pyridin-3-yl]-2-[1-(prop-2-enoyl)pyrrolidin-3-yl]quinazolin-4(3H)-one]
15 | 34% | < 4.70 | < 4.70 | C=CC(=O)N1CCC(c2nc3cc(Cl)c(-c4ccc(F)cc4F)cc3c(=O)[nH]2)C1 (stereo not drawn) [Example 23, 7-Chloro-6-(2,4-difluorophenyl)-2-[1-(prop-2-enoyl)pyrrolidin-3-yl]quinazolin-4(3H)-one]
16 | 69% | 5.28 | < 4.70 | C=CC(=O)N1CCC(c2cc3ncc(-c4ccccc4F)cc3c(=O)[nH]2)C1 (stereo not drawn) [Example 30, 3-(2-Fluorophenyl)-7-[1-(prop-2-enoyl)pyrrolidin-3-yl]-1,6-naphthyridin-5(6H)-one]
17 | 60% | 5.17 | < 4.70 | C=CC(=O)N1CCC(c2cc3ncc(-c4ccccc4CC)cc3c(=O)[nH]2)C1 (stereo not drawn) [Example 33, 3-(2-Ethylphenyl)-7-[1-(prop-2-enoyl)pyrrolidin-3-yl]-1,6-naphthyridin-5(6H)-one]
18 | 0% | < 4.70 | < 4.70 | C=CC(=O)N1CCC(c2cc3ncc(-c4sc(C)nc4C)cc3c(=O)[nH]2)C1 (stereo not drawn) [Example 34, 3-(2,4-Dimethyl-1,3-thiazol-5-yl)-7-[1-(prop-2-enoyl)pyrrolidin-3-yl]-1,6-naphthyridin-5(6H)-one]
19 | 73% | 5.59 | < 4.70 | C=CC(=O)N1CCC(c2nc3cnc(-c4c(O)cccc4F)cc3c(=O)[nH]2)C1 (stereo not drawn) [Example 39, 6-(2-Fluoro-6-hydroxyphenyl)-2-[1-(prop-2-enoyl)pyrrolidin-3-yl]pyrido[3,4-d]pyrimidin-4(3H)-one]
20 | 66% | 5.33 | < 4.70 | C=CC(=O)N1CCC(c2nc3cnc(-c4c(C)ccc5[nH]ncc45)cc3c(=O)[nH]2)C1 (stereo not drawn) [Example 40, 6-(5-Methyl-1H-indazol-4-yl)-2-[1-(prop-2-enoyl)pyrrolidin-3-yl]pyrido[3,4-d]pyrimidin-4(3H)-one]

— patent US20220227729A1, “IDENTIFICATION AND USE OF KRAS INHIBITORS” (Bayer Aktiengesellschaft, priority 2019, published 2022)
